Data set [1] deals with nymphal Ixodes scapularis. Description: Treated-vial biocidal screening with 2% acetone solutions (Example 2), tick nymphs. It is filed as in vivo. Conditions: treated vials sat 72 h; arthropods added for the final 24 h. The procedure: (§1) Samples of the compounds listed below were obtained as described in Example 1, and screened for biocidal activities against nymphal Ixodes scapularis. In this example, 2% acetone solutions (wt/vol) of the compounds were applied to inner surfaces of 2-dram friction cap vials. Vials and caps were treated then allowed to dry for a minimum of 4 hours before placing 10 nymphs in each container. These same vials were used to challenge additional nymphs and adult I. scapularis ticks and adult Xenopsylla cheopis fleas through five weeks to observe any possible residual activity.
Numbers in parentheses refer to length of treatment in terms of hours (h) or weeks (wk). Data is presented in terms of number killed/number tested. For test periods longer than 24 hours, the treated vials were allowed to sit for the stated period after drying (72 h, 4 wk, or 5 wk) and each group of arthropods was added to the vials for the final 24 h of the test period.

Data set [2] relates to fourth-instar Aedes aegypti larvae. The data set is described as follows: Larval mosquito bioassay. It counts as in vivo. Conditions: Aedes aegypti larval mosquitoes; concentration of the 1 ml added to 150 ml water. The procedure:
Individual groups of 10 fourth-instar Aedes aegypti larvae were contained in 150 ml of water and exposed to […] of essential oils prepared by 2-fold serial dilutions ranging from 0.06%–5.0% in 1 ml of acetone. A control group of larvae were exposed to 1 ml of acetone only.
It is important to note that larval mosquitoes are tested in their natural environment, i.e., in water. The particular assays used herein involved groups of 10 larval mosquitoes in 150 ml of water. The weight percentages reported for lethal concentration for larval mosquitoes are the weight percentages added to the 150 ml water (as opposed to the final percentage of the tested compound(s) in the 150 ml water). As one of skill in the art will appreciate, test compound(s) added to a volume of water (such as, 150 ml) can be dramatically diluted depending upon the water solubility of the tested compound. […] If the tested compound is an oil (such as, carvacrol, nootkatone, or 13-hydroxy-valencene), it most likely floats on the surface of the water.

For data set [3], the system named is ticks, fleas, formicids and termites. The data set is described as follows: Persistence of biocidal activity in vials treated with 2% solutions (Example 5). It is filed as in vivo. As to conditions: at 11 weeks. The procedure:
as §1
Persistence of biocidal activity was determined for nootkatone and valencene-11,12-epoxide by using the vials as treated with the 2% solutions of Example 2. This bioassay employed groups of ticks, fleas, formicids and termites using a method similar to that described in Example 2. […] At 11 weeks, the biocidal activity began to dissipate below the 100% mortality level.

The subject of data set [4] is I. scapularis nymphs. Description: Tick bioassay, treated 2-dram vials, probit analysis. It counts as in vivo, Ixodes scapularis. The source says: A control treated with acetone only was run with each series.
For each time point, if ticks and fleas were incapable of movement, maintaining normal posture, leg coordination, ability to right themselves, or any signs of life, they were considered moribund or dead.

In data set [5] the test system is X. cheopis adults. The data set is described as follows: Flea bioassay, treated 2-dram vials, probit analysis. It counts as in vivo, Xenopsylla cheopis. Conditions: 24 h exposure.
The subject of data set [6] is Aedes aegypti. The data set is described as follows: Mosquito susceptibility, serial dilutions (Example 8). Conditions: in vivo.
In data set [7] the test system is Culex p. pipiens. The data set is described as above. Conditions: in vivo.
Data set [8] deals with Ixodes scapularis nymphal ticks. Description: Tick repellency bioassay. It is filed as in vivo. As to conditions: listed as Nootkatone (Compound 7).
Setting [9] is: Ixodes scapularis nymphal ticks, alone, or 1:1 with carvacrol (in parenthesis).
Where [10] appears, read: 1 h after compound applied to applicator.
Setting [11] is: 4 h after compound applied to applicator.

The structures appear in SMILES notation. Some results are limits rather than exact numbers.

For the molecule `C=C(C)[C@@H]1CCC2=CC(=O)C[C@@H](C)[C@]2(C)C1` [Compound 7, Nootkatone], the “I. scapularis nymphs (72 h), number killed/number tested” value in data set [1] is 5/5. For the same molecule, the “LC50 (1 h)” value in data set [2] is given as 5.327 % (wt:vol); in data set [4] (setting [9]) it was 0.126 % (wt:vol). Moreover, the “LC50 (24 h)” value is 1.605 % (wt:vol) in data set [2]; 0.0029 % (wt:vol) in data set [4] (setting [9]); 0.0029 % (wt:vol) in data set [4] (Ixodes scapularis nymphal ticks, alone, or 1:1 with carvacrol (in parenthesis), listed as compound 7). Also, the “LC90 (1 hr)” value in data set [2] is 14.045 % (wt:vol); in data set [4] (setting [9]) it was 0.725 % (wt:vol). For the same molecule, the “LC90 (24 h)” value in data set [2] is given as 2.59 % (wt:vol); in data set [4] (setting [9]), 0.0055 % (wt:vol). Also, the mortality level in data set [3] is listed as below 100%. The LC90 in data set [4] (24 h exposure, NE = not effective at concentrations tested) is recorded as 0.0055 percent concentration, wt:vol; in data set [5] (NE = not effective at concentrations tested), 0.019 percent concentration, wt:vol. In addition, the Slope in data set [4] (24 h exposure, probit) is listed as 4.708; in data set [5] (probit), 3.527. Moreover, the “A. aegypti LD50” value in data set [6] is <4.5 × 10^−3. Also, the “C. pipiens. LD50” value in data set [7] is reported as <4.5 × 10^−3. The “Slope (±SEM)” value in data set [8] (1 h) is 1.288 (±0.275); in data set [8] (4 h) it was 1.291 (±0.277). Besides, the RD50 in data set [8] (setting [10]) is given as 0.186 % (wt:vol); in data set [8] (setting [11]) it was 0.177 % (wt:vol). Also, the RD95 was 3.514 % (wt:vol) in data set [8] (setting [10]) and 3.319 % (wt:vol) in data set [8] (setting [11]).

Source of the values: patent US7230033B2, “Pest control compositions and methods for their use” (United States of America as represented by the Secretary of …, priority 2000, dated 2007).
